By melting point is commonly meant the temperature of the solid-liquid transition.

Regarding `CC(C)n1c(=O)n(C(=O)NCC2CCN(CC3(C(=O)O)CCOCC3)CC2)c2ccccc21`, the melting point came out at 176 °C.

In turn, `O=C(O)COc1cccc2c(CNC(=O)COc3ccccc3)coc12` yielded a melting point of 156 to 157 °C.

With `CNC(=O)[C@H]1O[C@@H](n2cnc3c(NCc4cc(Cl)ccc4OCc4ccccc4)ncnc32)[C@H](O)[C@@H]1N`, the melting point fell in the range of 114 to 115 °C.

The compound `CCOC(=O)c1cn(-c2ccccn2)cn1` registered a melting point of 118 to 119 °C.

The compound `CCn1ncnc1COc1nn2c(-c3c(F)cccc3F)nnc2cc1C(C)(C)C` had a melting point of 182 °C.

In turn, `CCOC(=O)c1cc(NCc2ccccc2)c(Nc2ccccc2)c(S(N)(=O)=O)c1` came in with a melting point of 160 to 161 °C.

The compound `Cc1ccc(C(=O)c2cc(CCN(C)C)c(O)c(C(C)(C)C)c2)cc1` came in with a melting point of 123 to 124 °C.

Regarding `CCOC(=O)N1N=C(c2ccc(N)cc2)c2cc(Cl)ccc2CC1C` (stereo unspecified), the melting point lay within 95 to 98 °C.

On to `COC(=O)N1CCN(C(=O)N2CCC(c3cccnc3)C2)c2ccccc21` (stereo unspecified), for which the melting point was found to be 83 °C.

Compound `CCOC(=O)C1(C(C)C)OC2(O)C3CCCN3C(=O)C(Cc3ccccc3)N2C1=O` (stereo unspecified) returned a melting point of 152 to 154 °C.

`CS(=O)(=O)Oc1cccc2c1C(=O)OC2=O` yielded a melting point of 134 to 140 °C.

On to `COc1cc(NC(=O)CNC(=O)c2ccccc2)ccc1-c1cnco1`, for which the melting point is 243 to 245 °C.

As to `O=C(O)C1=Cc2cc(C(F)(F)C(F)(F)F)ccc2OC1C(F)(F)F` (stereo unspecified), the melting point was in the range of 162 to 165 °C.

With `Cc1c(C)c2c(c(C)c1NC(=O)CC(C)(C)C)C(c1cccc(C=O)c1)CO2` (stereo unspecified), the melting point lay within 178 to 179 °C.

Consider `COc1ccc2c(n1)C1(CO2)C(=O)N(Cc2ccc(C(F)(F)F)o2)c2ccc(F)cc21` (stereo unspecified), for which the melting point was 158 to 160 °C.

`COc1ccc(C2CNCCc3c2cc(OC)c(OC)c3Cl)cc1` (stereo unspecified) showed a melting point of 139 to 142 °C.

Turning to `CC(C)Cn1c(=O)n(C)c(=O)c2c(SCCCO)n(Cc3ccccc3CS(=O)(=O)c3ccccc3)nc21`, the melting point turned out to be 50 °C.

With `O=C(NCCO)/C(=C/c1ccc(OC2CC2)cc1)NC(=O)c1ccc(OCCC2CC2)cc1`, the melting point is 132 to 134 °C.

The compound `O=C1CCCC(=O)C1C(=O)c1ccc(Cl)c(OCCn2cnnn2)c1Cl` displayed a melting point of 46 to 54 °C.

In turn, `COC(=O)c1ccc(C(=O)C(=O)c2ccc3c(c2)C(C)(C)CCC3(C)C)cc1` gave a melting point of 93 to 96 °C.

For `Brc1ccc(Cn2cnc3ccccc32)cc1`, the melting point fell in the range of 93 to 95 °C.

`COC(OC)C(CNC(=O)c1cc2cc(O)cc([N+](=O)[O-])c2[nH]1)SCc1ccccc1` (stereo unspecified) yielded a melting point of 134 to 135 °C.

On to `C[C@@H]1[C@@H](N)CN1c1c(F)cc2c(=O)c(C(=O)O)cn3c2c1OC[C@H]3C`, for which the melting point was 217 to 219 °C.

Compound `CCCCCC(=O)C=P(c1ccccc1)(c1ccccc1)c1ccccc1` returned a melting point of 54 to 56 °C.

`O=C(c1ccc2scnc(=O)c2c1)N1CCCC1` displayed a melting point of 232 to 234 °C.

In the case of `Cc1ccc(S(=O)(=O)Cc2cccc(C(F)(F)F)c2)cc1`, the melting point lay in the range of 139 to 140 °C.

For `CC(O)(c1ccccc1)c1cncs1` (stereo unspecified), the melting point is 86 to 87 °C.

Compound `O=Cc1nn(-c2ccc(Cl)cc2)nc1-c1ccccc1` gave a melting point of 110 to 111 °C.

The compound `CC(c1cc(C#N)ncn1)C(O)(Cn1cncn1)c1ccc(F)cc1F` (stereo unspecified) returned a melting point of 148 to 149 °C.

Compound `O=C1OCCN1c1ccc2cc[nH]c2c1` had a melting point of 199 °C.

In turn, `CCOC(=O)c1cnc(Nc2ccccc2OC(C)C)[nH]c1=O` displayed a melting point of 205 to 207 °C.

As to `Cc1ccc(S(=O)(=O)n2c3cccc(CCl)c3c3c(C)ccc(C)c32)cc1`, the melting point amounted to 149 °C.

In the case of `Cc1cc(OCc2ccccc2)nc(S(C)(=O)=O)n1`, the melting point is 57 to 60 °C.

With `O=C(c1ccc2cnccc2n1)N1CCc2ccccc2C1`, the melting point was in the range of 98 to 100 °C.

Regarding `COC(=O)C=Cc1ccc(NC(C)=O)c(OC)c1`, the melting point is 137 °C.

With `COC(=O)C1(C(=O)OC)CCC(c2c(-c3ccccc3)n(C)c3ccccc23)CC1`, the melting point is 134 to 135 °C.

As to `O=c1[nH]c2ccc3c(c2o1)OC(CNCc1ccccc1)CO3` (stereo unspecified), the melting point came to 220 °C.

`OC(CCN1CC=C(c2ccc(Cl)cc2)CC1)c1ccc(Cl)cc1` (stereo unspecified): the melting point is 154 to 155 °C.

Turning to `CC(C)(C)C(NC(=O)c1ccc(I)cc1)Nc1c(Nc2cccnc2)c(=O)c1=O` (stereo unspecified), the melting point was in the range of 256 to 257 °C.

Compound `COC(=O)Cc1cc([N+](=O)[O-])ccc1OC` registered a melting point of 92 °C.

As for `COc1c(O)c([N+](=O)[O-])cc(C(=O)c2ccccc2)c1Cl`, the melting point was 143 to 145 °C.

`CCc1n[nH]c2c1nc(-c1ccccc1)c1ccccc12` yielded a melting point of 250 to 251 °C.

`CCCCOc1ccc(S(C)(=O)=O)cc1-c1nc2c(CC)nn(Cc3ccccn3)c2c(=O)[nH]1`: the melting point fell in the range of 189 to 191 °C.

Consider `Cc1cc(C)c2c(c1C)OC1(CCN(Cc3ccccc3)CC1)C2c1ccc(C(C)C)cc1` (stereo unspecified), for which the melting point was in the range of 125 to 128 °C.

`CC[C@H]1CNCC[C@H]1CCc1c[nH]c2ccccc12`: the melting point amounted to 150 °C.

Compound `CCOC(=O)CC(=O)c1cc(F)c(S(=O)CC)nc1Nc1ccc(F)cc1F` (stereo unspecified) gave a melting point of 115 to 116 °C.

In turn, `CCCCCCC(C)(C)c1cc(OC)c(C2=C[C@@H]3CC[C@@]2(C(=O)O)C3(C)C)c(OC)c1` gave a melting point of 101 to 102 °C.

The compound `COC(=O)c1c(C)nc(C)c(C(=O)OCC2CCCO2)c1-c1cccc(NC(C)=O)c1` (stereo unspecified) came in with a melting point of 196 to 198 °C.

Compound `NS(=O)(=O)c1ccc(-n2nc(C(F)F)cc2C2CCCCC2)cc1` yielded a melting point of 199 to 203 °C.

Compound `O=C(O)COc1cc(Cl)sc1C(=O)O` came in with a melting point of 214 °C.

On to `CCCCCCCCCCCCCCCCCCCCCCCCNc1ccc(C(=O)C(F)(F)F)cc1`, for which the melting point was 89 to 90 °C.

For the compound `CCOCCn1c(C(=O)C2CCN(C(=O)OC(C)(C)C)CC2)nc2ccccc21`, the melting point lay in the range of 96 to 98 °C.

Turning to `O=C1OC(CN2CCC(O)(c3ccc(Cl)cc3)CC2)CN1c1ccccc1` (stereo unspecified), the melting point lay in the range of 139 to 140 °C.

`Cc1oc(-c2ccco2)nc1COc1ccc(COc2nn(Cc3ccccc3)cc2C(=O)O)cc1OCc1ccccc1` yielded a melting point of 184 to 185 °C.

In the case of `CCOC(=O)c1c(N2CCN(C(=O)c3ccco3)CC2)c2cc(F)cnc2n(Cc2cccc(F)c2)c1=O`, the melting point came to 121 °C.

As for `Clc1ccc2nc3c(nc2c1)-c1cccc2cccc-3c12`, the melting point lay in the range of 224 to 225 °C.

Turning to `C[C@@H]1CCC[C@H](C)N1CCN1CCN(CCCN2CCCCC2)C1=C(C#N)C#N`, the melting point lay within 106 to 108 °C.

`COc1cc(OC)nc(Sc2sccc2NC(=O)C(F)(F)F)n1` returned a melting point of 88 to 90 °C.

`CC(=O)C1CCC2C3CC=C4CC(F)CCC4(C)C3CCC12C` (stereo unspecified) returned a melting point of 166 to 167 °C.

With `CC(CCC(=O)NO)NC(=O)C(=O)c1cn2c3c(cccc13)CCC2` (stereo unspecified), the melting point is 135 to 137 °C.

The compound `CCOC(=O)COc1ccc(OCc2ccccc2)cc1C(Nc1ccc(C(N)=S)cc1)C(=O)OCC` (racemic) showed a melting point of 166 °C.

On to `CC(C)n1nc(-c2cnc(N3CCOCC3)nc2-c2ccccc2)ccc1=O`, for which the melting point was in the range of 200 to 202 °C.

With `CCOC(=O)CCc1cn(CC(=O)N(C)CCc2ccccc2)c2ccc(OCc3ccccc3)cc12`, the melting point fell in the range of 81 to 83 °C.

The compound `N#Cc1cccc(N2Cc3ccccc3CN(C3CCNCC3)C2=O)c1` returned a melting point of 116 °C.

As to `CCOc1ccc(OCc2ccc(OCc3nc(-c4ccccc4)oc3C)cc2)cc1CC(=O)OC`, the melting point was 82 to 83 °C.

`CN(c1cccc2cc(C(N)=O)[nH]c12)S(=O)(=O)c1cccs1` showed a melting point of 244 to 245 °C.

Turning to `CC(C)(C)c1ccc(C(=O)N[C@H]2CC[C@H](CCN3CCC(c4cccc5c4CCO5)CC3)CC2)cc1`, the melting point was determined as 208 °C.

`O=[N+]([O-])c1cccc(O)c1O` gave a melting point of 82 to 85 °C.

The compound `CC(=C[N+](=O)[O-])NCCN(C)Cc1ccc(Cl)nc1` registered a melting point of 78 to 80 °C.

Regarding `COc1ccccc1COc1cc2c(cc1OC)C(=O)N(Cc1ccccc1OC)CC2`, the melting point was in the range of 133 to 134 °C.

Consider `CON=C1CCCc2cc(C(=O)OC)c(C)nc21`, for which the melting point was in the range of 124 to 125 °C.

`COC(=O)c1cccc(CCC(=O)O)c1` showed a melting point of 81 °C.

`NS(=O)(=O)c1ccc(-n2nc(C(F)(F)F)cc2-c2ccc(Cl)cc2)cc1F`: the melting point fell in the range of 140 to 141 °C.

In the case of `CCC(C)(CC)C(=O)O[C@H]1C[C@H](O)C=C2C=C[C@H](C)[C@H](CC[C@@H]3C[C@@H](O)CC(=O)O3)[C@H]21`, the melting point was in the range of 152 to 154 °C.

The compound `CCOC(=O)C(=CC=C(SC)C(=O)c1ccc(O)c(O)c1)N(C)C` returned a melting point of 144 °C.

For `CCCCCc1c(C(C)C)nc(C(C)C)c(CO)c1-c1ccc(CC)cc1`, the melting point lay within 87 to 88 °C.

`O=C(NC(c1ccc([N+](=O)[O-])cc1)P(=O)(Oc1ccccc1)Oc1ccccc1)N(c1ccccc1)c1ccccc1` (stereo unspecified): the melting point was 157 to 162 °C.

For the compound `COc1c(C(=S)NCCNC2CCCCCC2)cc(C)c2ccccc12`, the melting point was in the range of 140 to 141 °C.

`CCOC(=O)C(=CNc1ccc(F)c(F)c1OCc1ccccc1)C(=O)OCC` showed a melting point of 87 °C.

For the compound `COc1cc2c(cc1Nc1ncc(Cl)c(N[C@@H]3CCCC[C@H]3NS(C)(=O)=O)n1)CCN(CC(F)(F)F)CC2`, the melting point is 103 to 110 °C.

`CS(=O)(=O)c1ccc(-c2cc(CO[N+](=O)[O-])nn2C2CCCCCCC2)cc1` came in with a melting point of 110 to 111 °C.

The compound `COc1cc(O)ccc1[N+](=O)[O-]` showed a melting point of 142 °C.

The compound `O=c1[nH]c(CCl)c(I)c(=O)[nH]1` displayed a melting point of 225 °C.

In the case of `CCn1c(Cn2ccnc2-c2cc(F)ccc2F)nc2ncccc21`, the melting point was in the range of 214 to 216 °C.

`O=C1Nc2cccnc2N(CC#CCN2CCCCC2)c2ccccc21` gave a melting point of 198 °C.

`Cc1ccc2c(=O)nc(-c3ccccn3)sc2c1` gave a melting point of 225 °C.

The values are drawn from a melting point compilation (Tetko et al.; mined from patent text by program, amines drawn as free bases though some values may be those of a salt).
